Measurements taken from the CheMixHub drug solubility set.

Test: xn = mol fraction of the nth substance listed, in the solute-free solvent

Cc1c(Br)c(=O)n(C2CCCC2)c2nc(Cl)ncc12 + CCOC(C)=O + CCO
solubility (g/100 g solution)
Details	278.15 K	283.15 K	288.15 K	293.15 K	298.15 K	303.15 K	308.15 K	313.15 K	318.15 K	323.15 K
x2 = 0.1	0.181	0.219	0.26	0.312	0.368	0.429	0.506	0.589	0.684	0.79
x2 = 0.2	0.238	0.286	0.341	0.403	0.475	0.553	0.645	0.746	0.86	0.987
x2 = 0.3	0.297	0.353	0.418	0.491	0.574	0.668	0.775	0.892	1.02	1.17
x2 = 0.4	0.349	0.414	0.492	0.571	0.665	0.77	0.888	1.02	1.17	1.32
x2 = 0.5	0.396	0.467	0.548	0.639	0.742	0.856	0.984	1.13	1.28	1.45
x2 = 0.6	0.438	0.514	0.602	0.701	0.811	0.931	1.07	1.22	1.38	1.57
x2 = 0.7	0.478	0.56	0.652	0.756	0.873	1	1.15	1.3	1.48	1.67
x2 = 0.8	0.52	0.608	0.706	0.817	0.939	1.08	1.23	1.39	1.57	1.77
x2 = 0.9	0.571	0.665	0.77	0.888	1.02	1.16	1.32	1.5	1.69	1.9

c1ccc(-c2ccc(C(c3ccccc3)n3ccnc3)cc2)cc1 (stereo not drawn) + CCCO + O
solubility (g/100 g solution)
Details	278.15 K	283.15 K	288.15 K	293.15 K	298.15 K	303.15 K	308.15 K	313.15 K	318.15 K
x2 = 0.03225	0.0336	0.0464	0.0633	0.0834	0.101	0.139	0.185	0.229	0.288
x2 = 0.06974	0.0833	0.114	0.154	0.202	0.244	0.332	0.436	0.54	0.674
x2 = 0.1139	0.174	0.22	0.295	0.402	0.547	0.719	0.918	1.13	1.35
x2 = 0.1666	0.308	0.417	0.558	0.724	0.884	1.18	1.52	1.9	2.34
x2 = 0.2307	0.467	0.573	0.784	1.06	1.3	1.74	2.22	2.82	3.53
x2 = 0.3103	0.618	0.836	1.12	1.45	1.81	2.37	3.04	3.83	4.72
x2 = 0.4117	0.601	0.91	1.27	1.77	2.4	3.06	3.87	4.77	5.68
x2 = 0.5454	0.774	1.05	1.42	1.86	2.37	3.09	3.98	5.09	6.3
x2 = 0.7297	0.768	1.11	1.56	2.08	2.68	3.46	4.32	5.36	6.55

CCOc1ccccc1C(N)=O + CC#N + CC(C)O
solubility (g/100 g solution)
Details	x2 = 0.1	x2 = 0.2	x2 = 0.3	x2 = 0.4	x2 = 0.5	x2 = 0.6	x2 = 0.7	x2 = 0.8	x2 = 0.9
298.15 K	4.36	5.28	6.05	6.41	6.8	6.66	6.22	5.59	4.71
303.15 K	5.5	6.58	7.52	8.13	8.55	8.45	7.99	7.3	6.12
308.15 K	6.49	7.95	9.11	10.1	10.4	10.5	10.1	9.2	7.99
313.15 K	8.08	9.85	11.3	12.4	13	13	12.6	11.7	9.97
318.15 K	10.2	12.3	14.1	15.4	16.1	16.2	15.6	14.4	12.6
323.15 K	13	15.5	17.7	19.2	20.1	20.3	19.6	18.3	16.1

C#CC1(O)CCC2C3CCC4=CC(=O)CCC4C3C(=C)CC21CC (stereo not drawn) + CO + O
solubility (g/100 g solution)
Details	x2 = 0.05881	x2 = 0.1233	x2 = 0.1942	x2 = 0.2727	x2 = 0.3599	x2 = 0.4576	x2 = 0.5675	x2 = 0.6923	x2 = 0.835
273.15 K	0.987	1.09	1.19	1.31	1.32	1.44	1.45	1.62	3.44
278.15 K	1.1	1.19	1.31	1.46	1.47	1.6	1.7	1.9	3.82
283.15 K	1.2	1.28	1.43	1.59	1.61	1.74	1.95	2.15	4.22
288.15 K	1.31	1.39	1.56	1.75	1.77	1.88	2.21	2.46	4.66
293.15 K	1.42	1.49	1.68	1.91	1.92	2.03	2.49	2.8	5.13
298.15 K	1.52	1.59	1.8	2.05	2.08	2.17	2.74	3.18	5.62
303.15 K	1.62	1.68	1.91	2.21	2.23	2.3	3.01	3.61	6.16
308.15 K	1.71	1.76	2.01	2.35	2.38	2.43	3.28	4.07	6.71
313.15 K	1.79	1.84	2.12	2.48	2.51	2.54	3.54	4.52	7.27
318.15 K	1.86	1.92	2.21	2.62	2.66	2.64	3.78	5.05	7.92
323.15 K	1.93	1.98	2.29	2.73	2.78	2.72	4	5.59	8.54

CC1CCC2C(C)C(OC(=O)CCC(=O)O)OC3OC4(C)CCC1C32OO4 (stereo not drawn) + CO + O
solubility (g/100 g solution)
Details	278.15 K	283.15 K	288.15 K	293.15 K	298.15 K	303.15 K	308.15 K	313.15 K	318.15 K
x2 = 0.05887	0.112	0.144	0.181	0.228	0.276	0.346	0.424	0.514	0.625
x2 = 0.1235	0.366	0.464	0.566	0.693	0.82	0.997	1.19	1.41	1.67
x2 = 0.1941	0.818	0.996	1.2	1.44	1.67	1.99	2.35	2.73	3.17
x2 = 0.2725	1.42	1.69	2	2.36	2.71	3.17	3.68	4.22	4.83
x2 = 0.36	2.09	2.46	2.87	3.34	3.8	4.37	5.01	5.65	6.39
x2 = 0.4579	2.79	3.23	3.73	4.29	4.84	5.49	6.23	6.99	7.79
x2 = 0.5666	3.54	4	4.58	5.22	5.83	6.54	7.36	8.18	9.06
x2 = 0.6924	4.36	4.87	5.46	6.22	6.9	7.65	8.52	9.37	10.3
x2 = 0.8362	5.15	5.63	6.33	7.1	7.82	8.58	9.48	10.4	11.2

CCOc1ccccc1C(N)=O + CC#N + CCO
323.15 K
Details	solubility (g/100 g solution)
x2 = 0.1	17.4
x2 = 0.2	19.8
x2 = 0.3	21.8
x2 = 0.4	23.3
x2 = 0.5	23.9
x2 = 0.6	23.3
x2 = 0.7	21.7
x2 = 0.8	19.3
x2 = 0.9	16.4

C#CC1(O)C=CC2C3CCC4=CC(=O)CCC4C3CCC21CC (stereo not drawn) + O + CO
288.15 K
Details	solubility (g/100 g solution)
x2 = 0.165	4.27
x2 = 0.3077	3.7
x2 = 0.4325	1.93
x2 = 0.5424	1.49
x2 = 0.6401	1
x2 = 0.8058	0.438
x2 = 0.8767	0.371
x2 = 0.9412	0.371

CC1CCC2C(C)C(OC(=O)CCC(=O)O)OC3OC4(C)CCC1C32OO4 (stereo not drawn) + CCO + O
solubility (g/100 g solution)
Details	278.15 K	283.15 K	288.15 K	293.15 K	298.15 K	303.15 K	308.15 K	313.15 K	318.15 K
x2 = 0.04179	0.113	0.146	0.183	0.23	0.279	0.348	0.427	0.517	0.627
x2 = 0.08949	0.369	0.462	0.563	0.69	0.817	0.994	1.19	1.41	1.66
x2 = 0.1436	0.816	0.995	1.19	1.43	1.66	1.97	2.32	2.69	3.12
x2 = 0.2067	1.38	1.65	1.94	2.29	2.62	3.07	3.55	4.06	4.64
x2 = 0.2813	1.97	2.33	2.69	3.13	3.56	4.1	4.66	5.26	5.94
x2 = 0.3699	2.54	2.92	3.37	3.87	4.36	4.95	5.59	6.25	6.96
x2 = 0.4771	3.08	3.48	3.92	4.47	5.03	5.67	6.34	7.03	7.74
x2 = 0.6102	3.61	4.02	4.51	5.11	5.67	6.29	6.98	7.63	8.37
x2 = 0.7797	4.05	4.46	4.95	5.55	6.12	6.72	7.39	8.06	8.72
